The results in this text go back to US20050009060A1, “Multiplexed multitarget screening method” (priority 2003, published 2005).

Structures are written as SMILES.

The target of the experiment is 5HT2A receptor (Homo sapiens, UniProt P28223). Nature of the experiment: Ca2+i mobilization by autosampling flow cytometry, single cell threshold analysis, Indo-1-loaded cells. Type of experiment: cell-based. The settings on record: 1 uM serotonin; percent of cells with Ca2+i at least 2 SD above mean of buffer control.
Chain of 5HT2A receptor (P28223 whole entry): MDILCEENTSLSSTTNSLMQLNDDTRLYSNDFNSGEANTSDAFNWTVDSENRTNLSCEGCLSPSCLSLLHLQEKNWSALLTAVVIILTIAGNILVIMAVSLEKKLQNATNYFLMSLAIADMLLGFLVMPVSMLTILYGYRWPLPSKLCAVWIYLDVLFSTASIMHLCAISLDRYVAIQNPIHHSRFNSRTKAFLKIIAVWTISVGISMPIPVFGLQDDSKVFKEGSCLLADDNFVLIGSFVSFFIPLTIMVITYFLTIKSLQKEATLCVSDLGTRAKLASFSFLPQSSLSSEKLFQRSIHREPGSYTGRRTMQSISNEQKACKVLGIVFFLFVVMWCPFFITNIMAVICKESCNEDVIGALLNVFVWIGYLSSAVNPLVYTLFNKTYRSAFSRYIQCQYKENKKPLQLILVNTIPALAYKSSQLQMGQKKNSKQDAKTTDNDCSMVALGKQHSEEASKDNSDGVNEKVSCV

Excerpt: Left panel: distribution of Ca^2+i levels measured by intensity ratio, and determination of threshold level as shown by arrow.
A rotated histogram plot of such a response, and of the basal population, is shown in the left panel of FIG. 22, where the Ca^2+i level is shown on the x-axis and the number of cells attaining each Ca^2+i level is on the y-axis. […] The threshold is set by calculating the mean of the Ca^2+i level in the buffer control sample and calculating one (1) or more standard deviations above the mean. The choice to use one or more standard deviations is based on minimizing the error between buffer control samples and fully activated positive control samples. […] A threshold level at two standard deviations above the mean Ca^2+i level is shown by the arrow. Because the single cell flow cytometry as provided herein can analyze samples rapidly, about 100 to 200 cells, or more, can be analyzed in a short period. […] Data analysis is implemented in an automated software algorithm that automatically calculates Chi Square values along with the response frequency for each sample.

Take `NCCc1c[nH]c2ccc(O)cc12` [serotonin]: the “signal to baseline ratio (stimulated to unstimulated response frequency)” value is listed as “over 50”.
